Results published in BindingDB's records for doi:10.1016/S1074-5521(02)00184-9 (The Scripps Research Institute, 2002).

Target: HIV-1 protease (Human immunodeficiency virus, UniProt O90785)
Experiment: Inhibition Assay
Conditions: pH 5.6; 37 °C
Excerpt: Inhibition of HIV-protease activity for selected acids at P3-P3' positions.

Sequence of HIV-1 protease (O90785 whole entry): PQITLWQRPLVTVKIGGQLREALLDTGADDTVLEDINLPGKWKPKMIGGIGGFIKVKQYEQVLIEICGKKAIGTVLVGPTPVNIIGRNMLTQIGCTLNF

SMILES | IC50 [nM] | Ki [nM]
CC(C)[C@H](NC(=O)c1ccc([N+](=O)[O-])o1)C(=O)N[C@@H](Cc1ccccc1)[C@@H](O)[C@H](O)[C@H](Cc1ccccc1)NC(=O)[C@@H](NC(=O)c1ccc([N+](=O)[O-])o1)C(C)C [P3-P3' Entry 9] | 20 | –
CC(C)[C@H](NC(=O)Cc1c[nH]c2ccccc12)C(=O)N[C@@H](Cc1ccccc1)[C@@H](O)[C@H](O)[C@H](Cc1ccccc1)NC(=O)[C@@H](NC(=O)Cc1c[nH]c2ccccc12)C(C)C [P3-P3' Entry 1] | 17 | –
CC(C)[C@H](NC(=O)c1ccc(CN2CCCCC2)o1)C(=O)N[C@@H](Cc1ccccc1)[C@@H](O)[C@H](O)[C@H](Cc1ccccc1)NC(=O)[C@@H](NC(=O)c1ccc(CN2CCCCC2)o1)C(C)C [P3-P3' Entry 14] | > 50 | –
CC(C)[C@H](NC(=O)c1ccc(-c2c(Cl)cc([N+](=O)[O-])cc2Cl)o1)C(=O)N[C@@H](Cc1ccccc1)[C@@H](O)[C@H](O)[C@H](Cc1ccccc1)NC(=O)[C@@H](NC(=O)c1ccc(-c2c(Cl)cc([N+](=O)[O-])cc2Cl)o1)C(C)C [P3-P3' Entry 10] | > 50 | –
CC(C)[C@H](NC(=O)OCc1ccccc1)C(=O)N[C@@H](Cc1ccccc1)[C@@H](O)[C@H](O)[C@H](Cc1ccccc1)NC(=O)[C@@H](NC(=O)OCc1ccccc1)C(C)C | – | 1.5
CCC(C)[C@H](NC(=O)c1ccc2cccc(O)c2n1)C(=O)N[C@@H](Cc1ccccc1)[C@@H](O)[C@H](O)[C@H](Cc1ccccc1)NC(=O)[C@@H](NC(=O)c1ccc2cccc(O)c2n1)C(C)C (stereo partly drawn) [P3-P3' Entry 5] | > 50 | –
CC(C)[C@H](NC(=O)CCCc1c[nH]c2ccccc12)C(=O)N[C@@H](Cc1ccccc1)[C@@H](O)[C@H](O)[C@H](Cc1ccccc1)NC(=O)[C@@H](NC(=O)CCCc1c[nH]c2ccccc12)C(C)C [P3-P3' Entry 3] | 14 | –
CC(C)[C@H](NC(=O)c1ccc(-c2cc(C(F)(F)F)ccc2Cl)o1)C(=O)N[C@@H](Cc1ccccc1)[C@@H](O)[C@H](O)[C@H](Cc1ccccc1)NC(=O)[C@@H](NC(=O)c1ccc(-c2cc(C(F)(F)F)ccc2Cl)o1)C(C)C [P3-P3' Entry 11] | > 50 | –
CC(C)[C@H](NC(=O)c1ccc(CN2CCOCC2)o1)C(=O)N[C@@H](Cc1ccccc1)[C@@H](O)[C@H](O)[C@H](Cc1ccccc1)NC(=O)[C@@H](NC(=O)c1ccc(CN2CCOCC2)o1)C(C)C [P3-P3' Entry 15] | > 50 | –
CC(C)[C@H](NC(=O)c1ccc(-c2ccc([N+](=O)[O-])cc2[N+](=O)[O-])o1)C(=O)N[C@@H](Cc1ccccc1)[C@@H](O)[C@H](O)[C@H](Cc1ccccc1)NC(=O)[C@@H](NC(=O)c1ccc(-c2ccc([N+](=O)[O-])cc2[N+](=O)[O-])o1)C(C)C [P3-P3' Entry 12] | 10 | –
CC(C)[C@H](NC(=O)c1cc(O)c2ccccc2n1)C(=O)N[C@@H](Cc1ccccc1)[C@@H](O)[C@H](O)[C@H](Cc1ccccc1)NC(=O)[C@@H](NC(=O)c1cc(O)c2ccccc2n1)C(C)C [P3-P3' Entry 4] | 19 | –
CC(C)[C@H](NC(=O)c1ccc(C(=O)c2ccccc2)o1)C(=O)N[C@@H](Cc1ccccc1)[C@@H](O)[C@H](O)[C@H](Cc1ccccc1)NC(=O)[C@@H](NC(=O)c1ccc(C(=O)c2ccccc2)o1)C(C)C [P3-P3' Entry 13] | 10 | –

Continued by falling IC50, values first:

IC50 [nM] | Ki [nM] | SMILES
10 | – | CC(C)[C@H](NC(=O)COc1ccc2ccccc2c1)C(=O)N[C@@H](Cc1ccccc1)[C@@H](O)[C@H](O)[C@H](Cc1ccccc1)NC(=O)[C@@H](NC(=O)COc1ccc2ccccc2c1)C(C)C [P3-P3' Entry 7]
10 | – | CC(C)[C@H](NC(=O)c1ccc(-c2ccc(Cl)cc2)o1)C(=O)N[C@@H](Cc1ccccc1)[C@@H](O)[C@H](O)[C@H](Cc1ccccc1)NC(=O)[C@@H](NC(=O)c1ccc(-c2ccc(Cl)cc2)o1)C(C)C [P3-P3' Entry 16]
10 | – | CC(C)[C@H](NC(=O)c1ccc2ccccc2n1)C(=O)N[C@@H](Cc1ccccc1)[C@@H](O)[C@H](O)[C@H](Cc1ccccc1)NC(=O)[C@@H](NC(=O)c1ccc2ccccc2n1)C(C)C [P3-P3' Entry 6]
10 | – | CC(C)[C@H](NC(=O)CCc1c[nH]c2ccccc12)C(=O)N[C@@H](Cc1ccccc1)[C@@H](O)[C@H](O)[C@H](Cc1ccccc1)NC(=O)[C@@H](NC(=O)CCc1c[nH]c2ccccc12)C(C)C [P3-P3' Entry 2]
6 | 2 | CC(C)[C@H](NC(=O)c1ccc(-c2ccc([N+](=O)[O-])cc2)o1)C(=O)N[C@@H](Cc1ccccc1)[C@@H](O)[C@H](O)[C@H](Cc1ccccc1)NC(=O)[C@@H](NC(=O)c1ccc(-c2ccc([N+](=O)[O-])cc2)o1)C(C)C [P3-P3' Entry 8]
